{"source": "paper PMC4790291", "about": "“Short, Synthetic Cationic Peptides Have Antibacterial Activity against Mycobacterium smegmatis by Forming Pores in Membrane and Synergizing with Antibiotics” (Antibiotics, 2015)", "key": {"[1]": {"test_system": "M. smegmatis mc^2155", "assay": "microbe, parasite or virus in culture", "conditions": "Mycolicibacterium smegmatis, MC^2155, 3 h", "method": "(§1) The antimicrobial activity for each peptide was determined through 3 h incubation time. The appropriate dilutions of each well were plated in triplicate and the extent of killing for the peptides were determined.\n(§2) Briefly, 1 × 10^5 CFU per well of bacteria were incubated with different peptide concentrations in a 50 μL solution of Buffer Q consisting of 10 mM potassium phosphate buffer at pH 7.2 and 0.1% MB7H9 (3 h, 37 °C). Serial dilutions were then prepared in Buffer Q and plated in triplicate on MB7H9 plates, which were incubated (37 °C, 24 to 48 h) and CFUs counted. […] EC50 values were determined by plotting percent killing as a function of the log of peptide concentration (log μg/mL), and fitting the data from the antimicrobial assays to a standard sigmoidal dose-response curve, using Equation (1), where Y corresponds to bacterial killing (%) at a given peptide concentration (μg/mL), with X being the logarithm of that concentration (log μg/mL). In the equation, “Top” and “Bottom” refer to the upper and lower boundaries, and were constrained to values <100% and >0%, respectively."}, "[2]": {"test_system": "M. smegmatis", "conditions": "for MIC: 48 h"}, "[3]": {"test_system": "M. smegmatis mc^2155", "method": "as §1, §2"}, "[4]": {"test_system": "M. tuberculosis", "conditions": "100 μg/mL of peptide; cited from earlier work"}, "[5]": {"test_system": "M. smegmatis", "conditions": "for MIC Alone / MIC Combined (antibiotic): checkerboard; for MIC Alone: 37 °C, about 10^5 CFU/mL, single agent; for FIC (peptide) / FIC (antibiotic): MIC in combination/MIC alone; for FICI: FICI ≤ 0.5 synergy, 0.5-1.0 additive, 1.0-4.0 indifferent, > 4.0 antagonism"}, "[6]": {"test_system": "M. smegmatis", "parameters": "method as in earlier work", "conditions": "10 μg/mL of LL-37; ref 9 (Sonawane et al.); cited from earlier work"}, "[7]": {"test_system": "M. smegmatis membrane", "assay": "Bacterial cytoplasmic membrane depolarization assay, DiSC3(5)", "format": "cell-based, Mycobacterium smegmatis", "experimental": "Membrane depolarization assay was studied using DiSC3(5) as previously reported. Depolarization of a membrane can be visualized by a […] in fluorescence. After interaction with intact cytoplasmic membrane, the fluorescent probe DiSC3(5) was quenched. After incubation with the antimicrobial peptide, the membrane potential was lost, and the probe was released to the medium, ensuing in an increase of fluorescence that can be quantified and monitored as a function of time. In brief, enumerated frozen bacteria were pelleted and washed twice in phosphate buffer (pH 7.2) and then resuspended to 4 × 10^7 CFU/mL in phosphate buffer containing 50 μg/mL DiSC3(5). Then, 100 uLs of this suspension was added to wells of a black 96-well plate. The plate was incubated in a TECAN Safire2 spectrofluorometer and monitored until fluorescence leveled off. Next, 100 μLs of various concentrations of peptide in phosphate buffer (pH 7.2) were added to each well. Bacteria without peptide and peptide without bacteria served as controls. The plate was immediately returned to the spectrofluorometer. Readings were taken every 15 s for 5 min (excitation = 622 nm; emission = 670 nm).\nFigure 1 Membrane depolarization activity by LL-37, mCRAMP, hBD3-Pep4, ATRA-1A, ATRA-2, and NA-CATH. Depolarization determined using DiSC3(5) (50 μg/mL) at multiple concentrations of peptide (50, 25, 5, and 0.5 μg/mL). […]"}, "[8]": {"test_system": "M. smegmatis", "assay": "Ethidium bromide uptake assay (membrane permeation)", "conditions": "50 μg/mL peptide, 10 μM ethidium bromide, examined at 20 min, 37 °C, n = 3, Figure 2", "method": "Bacterial cytoplasmic membrane permeation is monitored by using the ethidium bromide uptake assay. […] M. smegmatis is grown until log phase in MB7H9 (Difco) broth with 2% (w/v) glucose as the carbon source, and 0.05% (v/v) Tween 80 in a shaking incubator (37 °C). Bacteria is centrifuged, washed with PBS, and then adjusted to an OD 600 nm of 0.1 Phosphate Buffer. 180 μL of bacteria is added to 10 μL ethidium bromide (10 μM final concentration) and 10 μL peptide in various concentrations, the experiment was performed in triplicate. The plate is read in a Tecan Safire^2 spectrofluorometer every 2 min for 30 min at 37 °C: (excitation = 540 nm, emission = 590 nm). Peak RFU at 20 min is used in Figure 2, and values were analyzed against wells with no peptide treatment with a Student’s t-test.\nPermeablization of membrane after 20 min was compared. Experiments were performed in triplicate (n = 3)."}, "[9]": {"test_system": "M. tuberculosis", "conditions": "LL-37 ref 30; hBD3 ref 33; cited from earlier work", "experimental": "While the EC50 experiments are typically carried out in 10 mM phosphate buffer with pH 7.2 for 3 h, the Minimal Inhibitory Concentration (MIC) is determined in bacterial broth (resulting in a higher salt concentration) with a 48 h incubation. We confirmed the sensitivity of M. smegmatis to common antibiotics such as polymyxin B, rifampicin, and fosmidomycin [35, 36, 37]. […] The reported MIC of full-length hBD ..."}, "[10]": {"test_system": "M. smegmatis", "assay": "microbe, parasite or virus in culture", "conditions": "Mycolicibacterium smegmatis, 48 h"}, "[11]": {"test_system": "M. smegmatis", "assay": "microbe, parasite or virus in culture", "conditions": "Mycolicibacterium smegmatis, 72 h, read-out: MIC Alone"}, "[12]": {"conditions": "cited from earlier work"}, "[13]": {"conditions": "from MIC in μM, above 1 = less potent than rifampicin"}, "[14]": {"conditions": "from EC50 in μM, above 1 = more potent than rifampicin"}, "[15]": {"conditions": "in combination with polymyxin B"}, "[16]": {"conditions": "peptide combined with polymyxin B"}, "[17]": {"conditions": "same assay as μg/mL value, 3 h, 10 mM phosphate buffer"}}, "note": "“And” between values parts separate entries of the source, which are not always exact repeats. Identical values can stand only once. Like-named read-outs stand apart in the source and are kept apart here. Positions of bridges follow the written chain, without caps; N, C: chain ends. Non-standard residues stand in square brackets, D forms with d. Residues, ends and D or L forms follow the SMILES beside them. No end group written: not given here. *: point of attachment. X1 = CC[C@H](C)CCCCC(=O)*; Dab = NCC[C@H](N)C(=O)O"}
{"compound": "O=CN(O)CCCP(=O)(O)O", "note": "[Fosmidomycin]", "values": [{"measurement": "EC50", "setting": "[1]", "result": 780, "unit": "nM"}, {"measurement": "EC50", "setting": "[1]; pH 7.2", "result": 0.14, "unit": "µg/mL"}, {"measurement": "Fold vs. Rifampicin (μM)", "setting": "[2]; [13]", "result": 0.39}, {"measurement": "Fold vs. Rifampicin", "setting": "[3]; [14]", "result": 0.20}]}
{"compound": "CC[C@H](C)[C@H](NC(=O)[C@H](CCCCN)NC(=O)[C@H](CCC(=O)O)NC(=O)[C@H](CCCCN)NC(=O)[C@H](CO)NC(=O)[C@H](CCCCN)NC(=O)[C@H](CCCNC(=N)N)NC(=O)[C@H](Cc1ccccc1)NC(=O)[C@H](Cc1ccccc1)NC(=O)[C@H](CC(=O)O)NC(=O)CNC(=O)[C@H](CC(C)C)NC(=O)[C@@H](N)CC(C)C)C(=O)NCC(=O)N[C@@H](CCCCN)C(=O)N[C@@H](CCC(=O)O)C(=O)N[C@@H](Cc1ccccc1)C(=O)N[C@@H](CCCCN)C(=O)N[C@@H](CCCNC(=N)N)C(=O)N[C@H](C(=O)N[C@H](C(=O)N[C@@H](CCC(N)=O)C(=O)N[C@@H](CCCNC(=N)N)C(=O)N[C@H](C(=O)N[C@@H](CCCCN)C(=O)N[C@@H](CC(=O)O)C(=O)N[C@@H](Cc1ccccc1)C(=O)N[C@@H](CC(C)C)C(=O)N[C@@H](CCCNC(=N)N)C(=O)N[C@@H](CC(N)=O)C(=O)N[C@@H](CC(C)C)C(=O)N[C@H](C(=O)N1CCC[C@H]1C(=O)N[C@@H](CCCNC(=N)N)C(=O)N[C@H](C(=O)N[C@@H](CCC(=O)O)C(=O)N[C@@H](CO)C(=O)O)[C@@H](C)O)C(C)C)[C@@H](C)CC)C(C)C)[C@@H](C)CC", "note": "[LL-37]", "values": [{"measurement": "Killing of M. tuberculosis", "setting": "[4]", "result": 65, "unit": "%"}, {"measurement": "MIC Alone", "setting": "[5]; 72 h", "result": 31.3, "unit": "µg/mL"}, {"measurement": "FIC (peptide)", "setting": "[5]; [15]", "result": 0.12}, {"measurement": "FIC (peptide)", "setting": "[5]; in combination with rifampicin", "result": 0.12}, {"measurement": "FICI", "setting": "[5]; [16]", "result": 0.37}, {"measurement": "Fold vs. Rifampicin (μM)", "setting": "[2]; [13]", "result": 0.85}, {"measurement": "Intracellular killing", "setting": "[6]", "result": 50, "unit": "%"}, {"measurement": "Membrane depolarization", "setting": "[7]; DiSC3(5) 50 μg/mL, within 1 min, peptide 50, 25, 5 and 0.5 μg/mL, phosphate buffer pH 7.2, n = 6, Figure 1", "result": "> 70", "unit": "%"}, {"measurement": "Lowest concentration that depolarizes the M. smegmatis membrane", "setting": "[7]; DiSC3(5), p < 0.001", "result": "≤ 0.5", "unit": "µg/mL"}, {"measurement": "EC50", "setting": "[3]; 1 × 10^5 CFU per well, 10 mM potassium phosphate buffer pH 7.2 with 0.1% MB7H9, 3 h, 37 °C, CFU plated in triplicate, sigmoidal fit", "result": 0.27, "unit": "µg/mL"}, {"measurement": "Fold vs. Rifampicin", "setting": "[3]; [14]", "result": 2.65}, {"measurement": "EC50", "setting": "[3]; [17]", "result": 60, "unit": "nM"}, {"measurement": "Extent of permeabilization (ethidium bromide uptake)", "setting": "[8]", "result": "very efficient"}, {"measurement": "MIC against M. tuberculosis", "setting": "[9]", "result": 5, "unit": "µg/mL"}]}
{"compound": "CC[C@H](C)CCCCC(=O)N[C@@H](CCN)C(=O)N[C@H](C(=O)N[C@@H](CCN)C(=O)N[C@H]1CCNC(=O)[C@H]([C@@H](C)O)NC(=O)[C@H](CCN)NC(=O)[C@H](CCN)NC(=O)[C@H](CC(C)C)NC(=O)[C@@H](Cc2ccccc2)NC(=O)[C@H](CCN)NC1=O)[C@@H](C)O", "note": "[Polymyxin B] (X1-[Dab]T[Dab][Dab][Dab][dF]L[Dab][Dab]T; lactam 4-C (inferred); N-terminus assumed)", "values": [{"measurement": "MIC Alone", "setting": "[5]; 72 h", "result": 7.8, "unit": "µg/mL"}, {"measurement": "Fold vs. Rifampicin (μM)", "setting": "[2]", "result": 1.26}, {"measurement": "MIC", "setting": "[2]", "result": 5.99, "unit": "µM"}, {"measurement": "Fold vs. Rifampicin", "setting": "[3]", "result": 1.65}, {"measurement": "EC50", "setting": "[3]; mc^2155, 3 h", "result": 96, "unit": "nM"}]}
{"compound": "CO[C@H]1/C=C/O[C@@]2(C)Oc3c(C)c(O)c4c(O)c(c(/C=N/N5CCN(C)CC5)c(O)c4c3C2=O)NC(=O)/C(C)=C\\C=C\\[C@H](C)[C@H](O)[C@@H](C)[C@@H](O)[C@@H](C)[C@H](OC(C)=O)[C@@H]1C", "note": "[Rifampicin]", "values": [{"measurement": "MIC Combined (antibiotic)", "setting": "[5]; in combination with ATRA-1A, 72 h", "result": 1.95, "unit": "µg/mL"}, {"measurement": "MIC Combined (antibiotic)", "setting": "[5]; in combination with LL-37, 72 h", "result": 0.97, "unit": "µg/mL"}, {"measurement": "MIC Combined (antibiotic)", "setting": "[5]; in combination with hBD3-Pep4, 72 h", "result": 1.95, "unit": "µg/mL"}, {"measurement": "MIC Combined (antibiotic)", "setting": "[5]; in combination with mCRAMP, 72 h", "result": 0.97, "unit": "µg/mL"}, {"measurement": "FIC (antibiotic)", "setting": "[5]; in combination with ATRA-1A", "result": 0.5}, {"measurement": "FIC (antibiotic)", "setting": "[5]; in combination with LL-37", "result": 0.25}, {"measurement": "FIC (antibiotic)", "setting": "[5]; in combination with hBD3-Pep4", "result": 0.5}, {"measurement": "FIC (antibiotic)", "setting": "[5]; in combination with mCRAMP", "result": 0.25}, {"measurement": "EC50", "setting": "[1]", "result": 159, "unit": "nM"}, {"measurement": "EC50", "setting": "[1]; pH 7.2", "result": 0.13, "unit": "µg/mL"}, {"measurement": "MIC", "setting": "[10]", "result": "3.9 µg/mL and 4.73 µM"}, {"measurement": "Fold vs. Rifampicin (μM)", "setting": "[2]; [13]", "result": 1}, {"measurement": "MIC", "setting": "[11]", "result": 3.9, "unit": "µg/mL"}, {"measurement": "Fold vs. Rifampicin", "setting": "[3]; [14]", "result": 1.0}]}
{"compound": "GLLRKGGEKIGEKLKKIGQKIKNFFQKLVPQPEQ [mCRAMP]", "values": [{"measurement": "MIC", "setting": "[2]", "result": 4.02, "unit": "µM"}, {"measurement": "EC50", "setting": "[3]; mc^2155, 3 h", "result": 44, "unit": "nM"}, {"measurement": "Hemolytic activity", "setting": "[12]", "result": "no hemolytic activity"}]}
{"compound": "KRAKKFFKKLK-NH2 [ATRA-1A]", "values": [{"measurement": "FIC (peptide)", "setting": "[5]; [15]", "result": 0.12}, {"measurement": "FICI", "setting": "[5]; [16]", "result": 0.37}, {"measurement": "FICI", "setting": "[5]; peptide combined with rifampicin", "result": 0.56}, {"measurement": "EC50", "setting": "[3]; [17]", "result": 35, "unit": "nM"}, {"measurement": "Hemolysis", "setting": "[12]; compared to PBS (pH 7)", "result": "did not elicit statistically significant hemolysis"}]}
{"compound": "RGRRSSRRKK-NH2 [hBD3-Pep4]", "values": [{"measurement": "MIC", "setting": "[2]", "result": 48.65, "unit": "µM"}, {"measurement": "EC50", "setting": "[3]; mc^2155, 3 h", "result": 287, "unit": "nM"}]}
